From the NIST ThermoML archive (doi:10.1021/acs.jced.8b00403)

Assay: refractive index (Na D-line) (dimensionless); wn = mass fraction of the nth substance listed
Settings: 101.33 kPa, Liquid, Standard Abbe refractometry

CC(O)CO (configuration not stated) [1,2-propanediol] + O
refractive index
Settings | 278.15 K | 283.15 K | 288.15 K | 293.15 K | 298.15 K | 303.15 K | 308.15 K | 313.15 K | 318.15 K
w1 = 0.0988 | 1.3458 | 1.3454 | 1.3449 | 1.3444 | 1.3432 | 1.3432 | 1.3424 | 1.3416 | 1.3408
w1 = 0.198 | 1.3578 | 1.3571 | 1.3564 | 1.3557 | 1.355 | 1.3542 | 1.3534 | 1.3534 | 1.3516
w1 = 0.3312 | 1.374 | 1.373 | 1.372 | 1.371 | 1.3699 | 1.3689 | 1.368 | 1.3671 | 1.366
w1 = 0.5005 | 1.3946 | 1.3932 | 1.3918 | 1.3903 | 1.3889 | 1.3874 | 1.3862 | 1.3851 | 1.384
w1 = 0.672 | 1.4112 | 1.4098 | 1.4084 | 1.4069 | 1.4054 | 1.4039 | 1.4024 | 1.4008 | 1.3994
w1 = 0.8044 | 1.4231 | 1.4216 | 1.42 | 1.4184 | 1.4168 | 1.415 | 1.4135 | 1.4119 | 1.4103
w1 = 0.9481 | 1.4343 | 1.4328 | 1.4312 | 1.4296 | 1.428 | 1.4264 | 1.4248 | 1.4231 | 1.4214
w1 = 1 | 1.438 | 1.4364 | 1.4348 | 1.4332 | 1.4315 | 1.4299 | 1.4281 | 1.4264 | 1.4247

OCCCO [propan-1,3-diol] + O
refractive index
Settings | w1 = 0.1113 | w1 = 0.2226 | w1 = 0.334 | w1 = 0.4453 | w1 = 0.501 | w1 = 0.6123 | w1 = 0.7236 | w1 = 0.8349 | w1 = 0.9277 | w1 = 1
278.15 K | 1.3466 | 1.3599 | 1.374 | 1.3866 | 1.3931 | 1.4066 | 1.4181 | 1.4289 | 1.4371 | 1.4436
283.15 K | 1.3462 | 1.3592 | 1.3729 | 1.3856 | 1.3921 | 1.4055 | 1.4169 | 1.4276 | 1.4358 | 1.4423
288.15 K | 1.3457 | 1.3586 | 1.3719 | 1.3845 | 1.391 | 1.4041 | 1.4157 | 1.4263 | 1.4345 | 1.4409
293.15 K | 1.3452 | 1.3579 | 1.371 | 1.3835 | 1.3899 | 1.4029 | 1.4145 | 1.425 | 1.4332 | 1.4395
298.15 K | 1.3446 | 1.3572 | 1.3702 | 1.3825 | 1.3888 | 1.4015 | 1.4133 | 1.4237 | 1.4319 | 1.4381
303.15 K | 1.344 | 1.3564 | 1.3693 | 1.3815 | 1.3876 | 1.4002 | 1.4118 | 1.4224 | 1.4304 | 1.4368
308.15 K | 1.3434 | 1.3558 | 1.3684 | 1.3804 | 1.3865 | 1.3989 | 1.4103 | 1.4211 | 1.4289 | 1.4354
313.15 K | 1.3426 | 1.355 | 1.3676 | 1.3793 | 1.3854 | 1.3977 | 1.4089 | 1.4197 | 1.4275 | 1.434
318.15 K | 1.3418 | 1.3541 | 1.3668 | 1.3782 | 1.3845 | 1.3965 | 1.4075 | 1.4182 | 1.4261 | 1.4325
